Measured values taken from patent US10485235B2, “Aryloxypyrimidinyl ethers as herbicides” (FMC Corporation, priority 2015, dated 2019).

Columns and labels:
Type in all cases: in vivo
[1] = system: foxtail, giant (giant foxtail, Setaria faberii); assay: Test A postemergence, giant foxtail; conditions: postemergence, 0 to 100 scale, 0 is no effect, 100 is complete control, approximately 10 days
Summary of the method: (§1)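 Ratings run 0–100, where 100 is complete control, and were scored visually against untreated plants about 10 days after treatment under greenhouse conditions. Formulated chemicals were sprayed either onto the soil surface after seeding (preemergence) or onto one- to two-leaf seedlings 2–10 cm high (postemergence).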

[2] = system: ducksalad (Heteranthera limosa); assay: Test B flooded paddy test, ducksalad; conditions: 250 g ai/ha, Flood; visual rating after 13 to 15 days; scale 0 to 100, 0 is no effect, 100 is complete control
Summary of the method: (§2)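 Plants grown to the 2-leaf stage; pots flooded to 3 cm above soil and compounds applied directly into the paddy water, depth held throughout. After 13 to 15 days in the greenhouse, injury was rated visually against untreated controls on a 0–100 scale (0 no effect, 100 complete control).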

[3] = system: barnyardgrass (Echinochloa crus-galli); assay: Test B flooded paddy test, barnyardgrass; conditions: 250 g ai/ha, Flood; visual rating after 13 to 15 days; scale 0 to 100, 0 is no effect, 100 is complete control
Summary of the method: as §2

kochia (Kochia scoparia) [4] = assay: Test A postemergence, kochia; conditions: postemergence, 0 to 100 scale, 0 is no effect, 100 is complete control, approximately 10 days
Summary of the method: as §1

rice (Oryza sativa) = assay: Test B flooded paddy test, rice; conditions: 250 g ai/ha, Flood; visual rating after 13 to 15 days; scale 0 to 100, 0 is no effect, 100 is complete control
Summary of the method: as §2

[5] = system: barnyardgrass (Echinochloa crus-galli); assay: Test A postemergence, barnyardgrass; conditions: postemergence, 0 to 100 scale, 0 is no effect, 100 is complete control, approximately 10 days
Summary of the method: as §1

[6] = system: wheat (Triticum aestivum); assay: Test A postemergence, wheat; conditions: postemergence, 0 to 100 scale, 0 is no effect, 100 is complete control, approximately 10 days
Summary of the method: as §1

[7] = system: ragweed (common ragweed, Ambrosia elatior); assay: Test A preemergence, ragweed; conditions: Preemergence, 0 to 100 scale (0 no effect, 100 complete control)
Summary of the method: as §1

corn (Zea mays) = assay: Test A postemergence, corn; conditions: postemergence, 0 to 100 scale, 0 is no effect, 100 is complete control, approximately 10 days
Summary of the method: as §1

kochia (Kochia scoparia) [8] = assay: Test A preemergence, kochia; conditions: Preemergence, 0 to 100 scale (0 no effect, 100 complete control)
Summary of the method: as §1

[9] = system: ryegrass, Italian (Italian ryegrass, Lolium multiflorum); assay: Test A preemergence, Italian ryegrass; conditions: Preemergence, 0 to 100 scale (0 no effect, 100 complete control)
Summary of the method: as §1

[10] = system: ragweed (common ragweed, Ambrosia elatior); assay: Test A postemergence, ragweed; conditions: postemergence, 0 to 100 scale, 0 is no effect, 100 is complete control, approximately 10 days
Summary of the method: as §1

[11] = system: ryegrass, Italian (Italian ryegrass, Lolium multiflorum); assay: Test A postemergence, Italian ryegrass; conditions: postemergence, 0 to 100 scale, 0 is no effect, 100 is complete control, approximately 10 days
Summary of the method: as §1

[12] = system: pigweed (Amaranthus retroflexus); assay: Test A preemergence, pigweed; conditions: Preemergence, 0 to 100 scale (0 no effect, 100 complete control)
Summary of the method: as §1

[13] = system: sedge, umbrella (small-flower umbrella sedge, Cyperus difformis); assay: Test B flooded paddy test, umbrella sedge; conditions: 250 g ai/ha, Flood; visual rating after 13 to 15 days; scale 0 to 100, 0 is no effect, 100 is complete control
Summary of the method: as §2

[14] = system: foxtail, giant (giant foxtail, Setaria faberii); assay: Test A preemergence, giant foxtail; conditions: Preemergence, 0 to 100 scale (0 no effect, 100 complete control)
Summary of the method: as §1

[15] = system: blackgrass (Alopecurus myosuroides); assay: Test A postemergence, blackgrass; conditions: postemergence, 0 to 100 scale, 0 is no effect, 100 is complete control, approximately 10 days
Summary of the method: as §1

[16] = system: pigweed (Amaranthus retroflexus); assay: Test A postemergence, pigweed; conditions: postemergence, 0 to 100 scale, 0 is no effect, 100 is complete control, approximately 10 days
Summary of the method: as §1

[17] = system: galium (catchweed bedstraw, Galium aparine); assay: Test A postemergence, galium; conditions: postemergence, 0 to 100 scale, 0 is no effect, 100 is complete control, approximately 10 days
Summary of the method: as §1

[18] = system: barnyardgrass (Echinochloa crus-galli); assay: Test A preemergence, barnyardgrass; conditions: Preemergence, 0 to 100 scale (0 no effect, 100 complete control)
Summary of the method: as §1

SMILES | Plant response rating, Foxtail, Giant ([1]; 31 g ai/ha) | Plant response rating, Foxtail, Giant ([1]; 125 g ai/ha) | Plant response rating, Ducksalad [2] | Plant response rating, Barnyardgrass [3] | Plant response rating, Kochia (kochia (Kochia scoparia) [4]; 31 g ai/ha) | Plant response rating, Kochia (kochia (Kochia scoparia) [4]; 125 g ai/ha) | Plant response rating, Rice (rice (Oryza sativa)) | Plant response rating, Barnyardgrass ([5]; 31 g ai/ha) | Plant response rating, Barnyardgrass ([5]; 125 g ai/ha) | Plant response rating, Wheat ([6]; 31 g ai/ha) | Plant response rating, Wheat ([6]; 125 g ai/ha) | Plant response rating, Ragweed ([7]; 31 g ai/ha) | Plant response rating, Ragweed ([7]; 125 g ai/ha) | Plant response rating, Corn (corn (Zea mays); 31 g ai/ha) | Plant response rating, Corn (corn (Zea mays); 125 g ai/ha) | Plant response rating, Kochia (kochia (Kochia scoparia) [8]; 31 g ai/ha) | Plant response rating, Kochia (kochia (Kochia scoparia) [8]; 125 g ai/ha) | Plant response rating, Ryegrass, Italian ([9]; 31 g ai/ha) | Plant response rating, Ryegrass, Italian ([9]; 125 g ai/ha) | Plant response rating, Ragweed ([10]; 31 g ai/ha) | further results
N#Cc1cccc(Oc2ncc(F)cn2)c1OC/C=C/C(F)(F)F [Compound 39] | 20 | 90 | 65 | 30 | 90 | 90 | 15 | 20 | 40 | 0 | 20 | 0 | 10 | 20 | 50 | 60 | 100 | 0 | 20 | 0 | Plant response rating, Ragweed ([10]; 125 g ai/ha): 10; Plant response rating, Ryegrass, Italian ([11]; 31 g ai/ha): 0; Plant response rating, Ryegrass, Italian ([11]; 125 g ai/ha): 50; Plant response rating, Pigweed ([12]; 31 g ai/ha): 100; Plant response rating, Pigweed ([12]; 125 g ai/ha): 100; Plant response rating, Sedge, Umbrella [13]: 100; Plant response rating, Foxtail, Giant ([14]; 31 g ai/ha): 90; Plant response rating, Foxtail, Giant ([14]; 125 g ai/ha): 100; Plant response rating, Blackgrass ([15]; 31 g ai/ha): 10; Plant response rating, Blackgrass ([15]; 125 g ai/ha): 60; Plant response rating, Pigweed ([16]; 31 g ai/ha): 90; Plant response rating, Pigweed ([16]; 125 g ai/ha): 100; Plant response rating, Galium ([17]; 31 g ai/ha): 20; Plant response rating, Galium ([17]; 125 g ai/ha): 60; Plant response rating, Barnyardgrass ([18]; 31 g ai/ha): 50; Plant response rating, Barnyardgrass ([18]; 125 g ai/ha): 100
N#Cc1cccc(Oc2ncc(F)cn2)c1OCCC(F)(F)F [Compound 40] | 10 | 80 | 75 | 0 | 50 | 70 | 0 | 0 | 50 | 0 | 0 | 10 | 90 | 10 | 20 | 90 | 100 | 0 | 10 | 0 | Plant response rating, Ragweed ([10]; 125 g ai/ha): 10; Plant response rating, Ryegrass, Italian ([11]; 31 g ai/ha): 0; Plant response rating, Ryegrass, Italian ([11]; 125 g ai/ha): 10; Plant response rating, Pigweed ([12]; 31 g ai/ha): 100; Plant response rating, Pigweed ([12]; 125 g ai/ha): 100; Plant response rating, Sedge, Umbrella [13]: 70; Plant response rating, Foxtail, Giant ([14]; 31 g ai/ha): 70; Plant response rating, Foxtail, Giant ([14]; 125 g ai/ha): 90; Plant response rating, Blackgrass ([15]; 31 g ai/ha): 10; Plant response rating, Blackgrass ([15]; 125 g ai/ha): 30; Plant response rating, Pigweed ([16]; 31 g ai/ha): 80; Plant response rating, Pigweed ([16]; 125 g ai/ha): 90; Plant response rating, Galium ([17]; 31 g ai/ha): 20; Plant response rating, Galium ([17]; 125 g ai/ha): 60; Plant response rating, Barnyardgrass ([18]; 31 g ai/ha): 30; Plant response rating, Barnyardgrass ([18]; 125 g ai/ha): 80
FC(F)(F)CCOc1c(Cl)cccc1Oc1ncc(Cl)cn1 [Compound 43] | 10 | 40 | 100 | 0 | 30 | 80 | 50 | 0 | 30 | 0 | 0 | 0 | 0 | 10 | 10 | 0 | 90 | 0 | 10 | 0 | Plant response rating, Ragweed ([10]; 125 g ai/ha): 0; Plant response rating, Ryegrass, Italian ([11]; 31 g ai/ha): 0; Plant response rating, Ryegrass, Italian ([11]; 125 g ai/ha): 0; Plant response rating, Pigweed ([12]; 31 g ai/ha): 40; Plant response rating, Pigweed ([12]; 125 g ai/ha): 100; Plant response rating, Sedge, Umbrella [13]: 90; Plant response rating, Foxtail, Giant ([14]; 31 g ai/ha): 10; Plant response rating, Foxtail, Giant ([14]; 125 g ai/ha): 100; Plant response rating, Blackgrass ([15]; 31 g ai/ha): 0; Plant response rating, Blackgrass ([15]; 125 g ai/ha): 30; Plant response rating, Pigweed ([16]; 31 g ai/ha): 50; Plant response rating, Pigweed ([16]; 125 g ai/ha): 90; Plant response rating, Galium ([17]; 31 g ai/ha): 20; Plant response rating, Galium ([17]; 125 g ai/ha): 60; Plant response rating, Barnyardgrass ([18]; 31 g ai/ha): 20; Plant response rating, Barnyardgrass ([18]; 125 g ai/ha): 70
FCCCOc1c(Cl)cccc1Oc1ncc(Cl)cn1 [Compound 44] | 0 | 20 | 70 | 0 | 20 | 70 | 0 | 0 | 10 | 0 | 0 | 0 | 0 | 0 | 10 | 0 | 40 | 0 | 0 | 0 | Plant response rating, Ragweed ([10]; 125 g ai/ha): 0; Plant response rating, Ryegrass, Italian ([11]; 31 g ai/ha): 0; Plant response rating, Ryegrass, Italian ([11]; 125 g ai/ha): 0; Plant response rating, Pigweed ([12]; 31 g ai/ha): 10; Plant response rating, Pigweed ([12]; 125 g ai/ha): 100; Plant response rating, Sedge, Umbrella [13]: 30; Plant response rating, Foxtail, Giant ([14]; 31 g ai/ha): 10; Plant response rating, Foxtail, Giant ([14]; 125 g ai/ha): 80; Plant response rating, Blackgrass ([15]; 31 g ai/ha): 0; Plant response rating, Blackgrass ([15]; 125 g ai/ha): 10; Plant response rating, Pigweed ([16]; 31 g ai/ha): 30; Plant response rating, Pigweed ([16]; 125 g ai/ha): 70; Plant response rating, Galium ([17]; 31 g ai/ha): 10; Plant response rating, Galium ([17]; 125 g ai/ha): 20; Plant response rating, Barnyardgrass ([18]; 31 g ai/ha): 10; Plant response rating, Barnyardgrass ([18]; 125 g ai/ha): 20
